The text below walks through data of patent US20110229505A1, “Methods for the diagnosis and treatment of cancer based on AVL9” (IMMATICS BIOTECHNOLOGIES GMBH, priority 2010, published 2011).

The test has as its system CD8+ T cells of healthy HLA-A*24 donors. Put plainly: In vitro immunogenicity for MHC class I presented peptides (aAPC priming, A*2402 multimer staining). The test is classed as cell-based, human. The settings on record: in vitro priming of CD8+ T cells with peptide-loaded HLA-A*2402/anti-CD28 beads, three stimulation cycles. Here is the method:
CD8 T cells were either directly enriched from the leukapheresis product or PBMCs (peripheral blood mononuclear cells) were isolated first by using standard gradient separation medium (PAA, Cölbe, Germany). Isolated CD8 lymphocytes or PBMCs were incubated until use in T-cell medium (TCM) consisting of RPMI-Glutamax (Invitrogen, Karlsruhe, Germany) supplemented with 10% heat inactivated human AB serum (PAN-Biotech, Aidenbach, Germany), 100 U/ml Penicillin/100 μg/ml Streptomycin (Cambrex, Cologne, Germany), 1 mM sodium pyruvate (CC Pro, Oberdorla, Germany), 20 μg/ml Gentamycin (Cambrex). […] Isolation of CD8+ lymphocytes was performed by positive selection using CD8 MicroBeads (Miltenyi Biotec, Bergisch-Gladbach, Germany).
800.000 beads/200 μl were coated in 96-well plates in the presence of 600 ng biotin anti-CD28 plus 200 ng relevant biotin-pMHC (high density beads). Stimulations were initiated in 96-well plates by co-incubating 1×10^6 CD8+ T cells with 2×10^5 washed coated beads in 200 μl TCM supplemented with 5 ng/ml IL-12 (PromoCell) for 3-4 days at 37° C. […] Peptide specific cells were calculated as percentage of total CD8+ cells. […] In vitro priming of specific multimer+ CD8+ lymphocytes was detected by appropriate gating and by comparing to negative control stimulations.

Consider “1 (FYISPVNKL; listed as Homo sapiens) [compound 1]”, for which the “Positive donors/donors tested [%]” value (among evaluable donors) stood at 100%. In addition, the “Positive wells/wells tested [%]” value (among evaluable wells) is listed as 50%.
